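Protocol summary: plate cells (96-well), add compound at 5 concentrations, incubate 48 h, interpolate endpoints linearly. At the TGI there is no net growth.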 Where a SMILES comes first, the peptide text is derived from it. [ ]: non-standard residue; d: D form. pGlu = O=C1CC[CH](C(=O)O)N1
Tests used:
Experiment in all cases: NCI anticancer screen, dose series, 48 h
SK-OV-3 ovarian = system: SK-OV-3 ovarian
COLO 205 colon = system: COLO 205 colon
OVCAR-5 ovarian = system: OVCAR-5 ovarian
NCI-H23 lung = system: NCI-H23 lung
SF-268 CNS = system: SF-268 CNS
SF-295 CNS = system: SF-295 CNS
T-47D breast = system: T-47D breast
IGROV1 ovarian = system: IGROV1 ovarian
CAKI-1 renal = system: CAKI-1 renal
UACC-257 melanoma = system: UACC-257 melanoma

## COc1ccc(N=N/C(=N/NC(=O)c2cc(Cl)ccc2C(=O)c2ccccc2)c2ccc(N(CCC#N)CCC#N)cc2C)cc1
SK-OV-3 ovarian
  TGI: > 100 µM
COLO 205 colon
  TGI: 42.9 µM
OVCAR-5 ovarian
  TGI: 70 µM
NCI-H23 lung
  TGI: 61.9 µM
SF-268 CNS
  TGI: > 100 µM
SF-295 CNS
  TGI: > 100 µM
T-47D breast
  TGI: 47.4 µM
IGROV1 ovarian
  TGI: 27.7 µM
CAKI-1 renal
  TGI: 46 µM
UACC-257 melanoma
  TGI: 81 µM

## CSC1(SC)N2Cc3ccccc3N=C2C1(c1ccccc1)c1ccccc1
SK-OV-3 ovarian
  TGI: > 100 µM
COLO 205 colon
  TGI: 15.6 µM
OVCAR-5 ovarian
  TGI: > 77.9 µM
NCI-H23 lung
  TGI: > 100 µM
SF-268 CNS
  TGI: > 100 µM
SF-295 CNS
  TGI: > 100 µM
T-47D breast
  TGI: > 100 µM
IGROV1 ovarian
  TGI: > 100 µM
CAKI-1 renal
  TGI: > 100 µM
UACC-257 melanoma
  TGI: > 90.2 µM

## NNC(=O)CCC(NS(=O)(=O)c1ccc(Cl)cc1)C(=O)NN (centres undefined)
SK-OV-3 ovarian
  TGI: > 100 µM
COLO 205 colon
  TGI: > 100 µM
OVCAR-5 ovarian
  TGI: > 100 µM
NCI-H23 lung
  TGI: > 100 µM
SF-268 CNS
  TGI: > 100 µM
SF-295 CNS
  TGI: > 100 µM
T-47D breast
  TGI: > 100 µM
IGROV1 ovarian
  TGI: > 100 µM
CAKI-1 renal
  TGI: > 100 µM
UACC-257 melanoma
  TGI: > 100 µM

## N#CCSc1c(-c2ccccc2)c(=O)n(-c2ccccc2)c(=S)n1-c1ccccc1
SK-OV-3 ovarian
  TGI: > 100 µM
COLO 205 colon
  TGI: > 100 µM
OVCAR-5 ovarian
  TGI: > 100 µM
NCI-H23 lung
  TGI: > 100 µM
SF-268 CNS
  TGI: > 100 µM
SF-295 CNS
  TGI: > 100 µM
T-47D breast
  TGI: > 100 µM
IGROV1 ovarian
  TGI: > 100 µM
CAKI-1 renal
  TGI: > 100 µM
UACC-257 melanoma
  TGI: > 100 µM

## COC12OC3CC4(C)C(=CC3OC(OC(C)C1O)C2O)CCC1C4CCC2(C)C(c3ccc(=O)oc3)CCC12O (centres undefined)
SK-OV-3 ovarian
  TGI: 0.272 µM
OVCAR-5 ovarian
  TGI: 0.00327 µM
NCI-H23 lung
  TGI: 0.00177 µM
SF-268 CNS
  TGI: 0.00157 µM
SF-295 CNS
  TGI: 0.447 µM
T-47D breast
  TGI: 0.0782 µM
IGROV1 ovarian
  TGI: 0.00389 µM
CAKI-1 renal
  TGI: 0.00849 µM
UACC-257 melanoma
  TGI: 0.0117 µM

## Cn1c(N=[N+]=[N-])cc(=O)n(C)c1=O
SK-OV-3 ovarian
  TGI: > 100 µM
COLO 205 colon
  TGI: > 100 µM
OVCAR-5 ovarian
  TGI: > 100 µM
NCI-H23 lung
  TGI: > 100 µM
SF-268 CNS
  TGI: > 100 µM
SF-295 CNS
  TGI: > 100 µM
T-47D breast
  TGI: > 100 µM
IGROV1 ovarian
  TGI: > 100 µM
CAKI-1 renal
  TGI: > 100 µM
UACC-257 melanoma
  TGI: > 100 µM

## Cc1c(O)c(=O)ccn1CCc1c[nH]c2ccccc12
SK-OV-3 ovarian
  TGI: > 100 µM
COLO 205 colon
  TGI: 73.9 µM
OVCAR-5 ovarian
  TGI: > 100 µM
NCI-H23 lung
  TGI: > 100 µM
SF-268 CNS
  TGI: 8.77 µM
SF-295 CNS
  TGI: > 100 µM
T-47D breast
  TGI: 78 µM
CAKI-1 renal
  TGI: 7.25 µM
UACC-257 melanoma
  TGI: 15.5 µM

## COc1ccc2oc(=Nc3ccc(F)cc3)c(C(N)=O)cc2c1
SK-OV-3 ovarian
  TGI: 52.1 µM
COLO 205 colon
  TGI: > 100 µM
OVCAR-5 ovarian
  TGI: > 100 µM
NCI-H23 lung
  TGI: > 100 µM
SF-268 CNS
  TGI: > 100 µM
SF-295 CNS
  TGI: > 100 µM
T-47D breast
  TGI: 94.8 µM
IGROV1 ovarian
  TGI: > 100 µM
CAKI-1 renal
  TGI: > 100 µM
UACC-257 melanoma
  TGI: > 100 µM

## Clc1ccc2nc(CC3CCCC3)[nH]c2c1
SK-OV-3 ovarian
  TGI: 49.1 µM
COLO 205 colon
  TGI: 27.9 µM
OVCAR-5 ovarian
  TGI: 67.5 µM
NCI-H23 lung
  TGI: 30.6 µM
SF-268 CNS
  TGI: 40.2 µM
SF-295 CNS
  TGI: 34.7 µM
T-47D breast
  TGI: 72.5 µM
IGROV1 ovarian
  TGI: 19 µM
CAKI-1 renal
  TGI: 27.6 µM
UACC-257 melanoma
  TGI: > 100 µM

## COc1ccc(S(=O)(=O)Nc2ccc(-c3csc(N4C(=O)/C(=C/c5ccccc5)N=C4c4ccccc4)n3)cc2)cc1Cl
SK-OV-3 ovarian
  TGI: > 100 µM
COLO 205 colon
  TGI: > 100 µM
OVCAR-5 ovarian
  TGI: > 100 µM
NCI-H23 lung
  TGI: 54.8 µM
SF-268 CNS
  TGI: > 100 µM
SF-295 CNS
  TGI: > 100 µM
T-47D breast
  TGI: 61.9 µM
IGROV1 ovarian
  TGI: > 100 µM
CAKI-1 renal
  TGI: > 100 µM
UACC-257 melanoma
  TGI: > 100 µM

## COc1nc2ccc(CNc3ccc(C(=O)O)cc3)cc2nc1OC
SK-OV-3 ovarian
  TGI: > 10 µM
COLO 205 colon
  TGI: > 10 µM
OVCAR-5 ovarian
  TGI: > 10 µM
NCI-H23 lung
  TGI: > 10 µM
SF-268 CNS
  TGI: > 10 µM
SF-295 CNS
  TGI: > 10 µM
T-47D breast
  TGI: > 10 µM
IGROV1 ovarian
  TGI: > 10 µM
CAKI-1 renal
  TGI: > 10 µM
UACC-257 melanoma
  TGI: > 10 µM

## CCOC(=O)C1C[C@H]2CO[C@H](c3ccccc3)N2C1=O (some centres undefined)
COLO 205 colon
  TGI: > 100 µM
OVCAR-5 ovarian
  TGI: > 100 µM
NCI-H23 lung
  TGI: > 100 µM
SF-268 CNS
  TGI: > 100 µM
SF-295 CNS
  TGI: > 100 µM
T-47D breast
  TGI: > 100 µM
IGROV1 ovarian
  TGI: > 100 µM
CAKI-1 renal
  TGI: > 100 µM
UACC-257 melanoma
  TGI: > 100 µM

## COc1cc2c(cc1OC(=O)c1cc3ccccc3[nH]1)N=C[C@@H]1CCCN1C2=O
SK-OV-3 ovarian
  TGI: 15.2 µM
COLO 205 colon
  TGI: 0.405 µM
OVCAR-5 ovarian
  TGI: 0.59 µM
SF-268 CNS
  TGI: > 22.2 µM
SF-295 CNS
  TGI: 4.48 µM
T-47D breast
  TGI: 6.25 µM
IGROV1 ovarian
  TGI: > 39.6 µM
CAKI-1 renal
  TGI: 13.8 µM
UACC-257 melanoma
  TGI: 0.691 µM

## COc1c(-c2cccs2)oc2c(CC(=O)O)cccc2c1=O
SK-OV-3 ovarian
  TGI: > 100 µM
COLO 205 colon
  TGI: > 100 µM
OVCAR-5 ovarian
  TGI: > 100 µM
NCI-H23 lung
  TGI: > 100 µM
SF-295 CNS
  TGI: > 100 µM
T-47D breast
  TGI: > 100 µM
IGROV1 ovarian
  TGI: > 100 µM
CAKI-1 renal
  TGI: > 100 µM
UACC-257 melanoma
  TGI: > 100 µM

## CC1(C)O[C@H]2OC(CO)C(OS(C)(=O)=O)[C@H]2O1 (some centres undefined)
COLO 205 colon
  TGI: > 100 µM
OVCAR-5 ovarian
  TGI: > 100 µM
NCI-H23 lung
  TGI: > 100 µM
SF-268 CNS
  TGI: > 100 µM
SF-295 CNS
  TGI: > 100 µM
T-47D breast
  TGI: > 100 µM
IGROV1 ovarian
  TGI: > 100 µM
CAKI-1 renal
  TGI: > 100 µM
UACC-257 melanoma
  TGI: > 100 µM

## CC(NC(=O)C(Cc1cnc[nH]1)NC(=O)C1CCC(=O)N1)C(N)=O (stereo not drawn) ([pGlu]-His-Ala-NH2; configuration not given here)
SK-OV-3 ovarian
  TGI: > 100 µM
COLO 205 colon
  TGI: > 100 µM
OVCAR-5 ovarian
  TGI: > 100 µM
NCI-H23 lung
  TGI: > 100 µM
SF-268 CNS
  TGI: > 100 µM
SF-295 CNS
  TGI: > 100 µM
T-47D breast
  TGI: > 100 µM
IGROV1 ovarian
  TGI: > 100 µM

## CN(C)CCNC(=O)c1cccc2[nH]c(-c3ccncc3)nc12
COLO 205 colon
  TGI: 3.26 µM
OVCAR-5 ovarian
  TGI: 34.1 µM
NCI-H23 lung
  TGI: 32.1 µM
SF-268 CNS
  TGI: 47.4 µM
SF-295 CNS
  TGI: 7.97 µM
T-47D breast
  TGI: > 86.1 µM
IGROV1 ovarian
  TGI: > 56.4 µM
CAKI-1 renal
  TGI: 5.95 µM
UACC-257 melanoma
  TGI: 3.51 µM

## COc1ccc(NCc2cnc3nc(N)nc(N)c3c2C)cc1
SK-OV-3 ovarian
  TGI: > 100 µM
COLO 205 colon
  TGI: > 100 µM
OVCAR-5 ovarian
  TGI: > 100 µM
NCI-H23 lung
  TGI: > 100 µM
SF-268 CNS
  TGI: > 100 µM
T-47D breast
  TGI: > 92.8 µM
IGROV1 ovarian
  TGI: > 100 µM
CAKI-1 renal
  TGI: > 100 µM
UACC-257 melanoma
  TGI: > 100 µM

## COC(=O)c1c(O)ccc2c1c1c(n2Cc2ccccc2OC)C(=O)c2ccccc2C1
SK-OV-3 ovarian
  TGI: > 100 µM
COLO 205 colon
  TGI: 30 µM
NCI-H23 lung
  TGI: > 100 µM
SF-268 CNS
  TGI: > 100 µM
T-47D breast
  TGI: > 100 µM
IGROV1 ovarian
  TGI: > 100 µM
CAKI-1 renal
  TGI: > 100 µM
UACC-257 melanoma
  TGI: > 100 µM

## O=C(Cc1ccccc1)N=Nc1c(O)[nH]c2ccccc12
SK-OV-3 ovarian
  TGI: > 100 µM
COLO 205 colon
  TGI: > 100 µM
OVCAR-5 ovarian
  TGI: > 100 µM
NCI-H23 lung
  TGI: > 100 µM
SF-268 CNS
  TGI: 70.7 µM
SF-295 CNS
  TGI: > 100 µM
T-47D breast
  TGI: > 100 µM
IGROV1 ovarian
  TGI: > 100 µM
UACC-257 melanoma
  TGI: > 100 µM

## Cc1cc(C)c2c(=N)c3ccccc3n(CCCCCCn3c4ccccc4c(=N)c4c(C)cc(C)nc43)c2n1
SK-OV-3 ovarian
  TGI: 2.98 µM
OVCAR-5 ovarian
  TGI: 3.49 µM
NCI-H23 lung
  TGI: 2.44 µM
SF-295 CNS
  TGI: 2.85 µM
T-47D breast
  TGI: 3.65 µM
IGROV1 ovarian
  TGI: 2.64 µM
CAKI-1 renal
  TGI: 2.52 µM
UACC-257 melanoma
  TGI: 3.06 µM

## COc1cc(/C=C2\N=C(C)N(n3c(-c4ccccc4)nc4ccccc4c3=O)C2=O)cc(OC)c1OC
SK-OV-3 ovarian
  TGI: > 100 µM
COLO 205 colon
  TGI: > 100 µM
NCI-H23 lung
  TGI: > 100 µM
SF-268 CNS
  TGI: > 100 µM
SF-295 CNS
  TGI: > 100 µM
T-47D breast
  TGI: > 100 µM
IGROV1 ovarian
  TGI: > 100 µM
CAKI-1 renal
  TGI: > 100 µM
UACC-257 melanoma
  TGI: > 100 µM
